Laboratory results from patent US11306124B2, “Agonist agents of CD47 inducing programmed cell death and their use in the treatments of diseases associated with defects in programmed cell death” (SORBONNE UNIVERSITE, priority 2016, dated 2022).
Where two headings read alike, the source gives them in different places. Residues, ends and D or L forms follow the SMILES beside them.

Assays:
HCT-116 cells = format: cell-based, human; conditions: human, 2 h
Description: 2.2.2. Cell Death Analysis by Flow Cytometry
To detect possible apoptotic processes, cells were seeded in 35 mm dishes and cultured in media containing each tested cyclic peptide for 2 hours following procedure A or B.
Procedure B: Peptides were incubated for 2 hours on HCT-116 cells. Superkiller Trail (ALX-201-115C-010) was used as a positive pro-apoptotic control. Cells were analyzed by cytofluorometry using FITC Annexin V apoptosis detection kit with 7-AAD from BIOLEGEND (BLE640922).

[1] = system: MCF-7, HCT-116, BxPC3 and A549 cancer cells; test: Cell viability and proliferation of tumor cells (cytotoxic assay and direct cell counting); format: cell-based, human; conditions: for viability in all cell strains: 2 hours, 10 to 50 μM peptide concentration; for efficiency in inducing cell death on cancer cell lines: MCF-7, HCT-116, BxPC3, A549
Description: The effects of several cyclic peptides of the invention on the proliferation of tumor cells were evaluated on 5 cell lines (MCF-7, human breast cancer cells; HCT-116, human colon cancer cells; BxPC3, human pancreas cancer cells and A549, human lung cancer cells) by cytotoxic assay and by counting directly the number of cells.
Those cyclic peptides were dissolved in DMSO at the following concentrations: 0, 5, 10, 25, 50 and 100 μM.
Culture media used for these assays are: EMEM=10% SVF for MCF-7 and Wi38; RPMI […] SVF for HCT-116 and BxPC3 and F-12K=10% SVF for A549.
500 cells were seeded in 96-well plates, incubated at 37° C. for 24 hours, and treated by the cyclic peptides at the different concentrations and controls for 2 h.

| Molecule | Viable, Mean (%) (HCT-116 cells; 12.5 μM) | Viable, Mean (%) (HCT-116 cells; 25 μM) | Viable, Mean (%) (HCT-116 cells; 50 μM) | viability in all cell strains [1] | efficiency in inducing cell death on cancer cell lines [1] |
| --- | --- | --- | --- | --- | --- |
| CSCC[C@@H]1NC(=O)[C@@H](C(C)C)NC(=O)[C@H](C(C)C)NC(=O)[C@H](Cc2ccc(O)cc2)NC(=O)[C@H](Cc2ccccc2)NC(=O)[C@H](CCCNC(=N)N)N(C)C(=O)[C@H](CO)NC(=O)[C@H](CO)NC(=O)[C@H](CC(N)=O)NC(=O)[C@H](C(C)C)NC(=O)[C@H](C(C)C)NC(=O)[C@H](CCCCN)NC(=O)[C@H](C(C)C)NC(=O)[C@H](CO)NC(=O)[C@H](CC(C)C)NC(=O)CNC(=O)[C@@H]2CCCN2C(=O)[C@H]2CCCN2C(=O)[C@H](CCCCN)NC(=O)[C@H](Cc2c[nH]c3ccccc23)NC1=O (relative stereo) [PKTD10-RNMe, —S—R*—F—Y—V—V—M—W—K—p—P—G—L—S—V—K—V—V—N—S— R* = RNMe] | 91.72 | 91.10 | 76.73 |  |  |
| CC[C@@H](C)[C@@H]1NC(=O)CNC(=O)[C@@H]2CCCN2C(=O)[C@H]2CCCN2C(=O)[C@H](CCCCN)NC(=O)[C@H](Cc2c[nH]c3ccccc23)NC(=O)[C@H](CCSC)NC(=O)[C@@H](C(C)C)NC(=O)[C@H](C(C)C)NC(=O)[C@H](Cc2ccc(O)cc2)NC(=O)[C@H](Cc2ccccc2)NC(=O)[C@H](CCCNC(=N)N)NC(=O)C(CC(N)=O)NC(=O)[C@H](C(C)C)NC(=O)[C@H](C(C)C)NC(=O)[C@H](CCCCN)NC(=O)[C@H](C(C)C)NC(=O)[C@H](CO)NC1=O (some centres unmarked) [PKTD7, —R—F—Y—V—V—M—W—K—p—P—G—I—S—V—K—V—V—N—] (HELM PEPTIDE1{G.[CC[C@@H](C)[C@H](N[*:1])C(=O)[*:2]].S.V.K.V.V.[NC(=O)CC(N[*:1])C(=O)[*:2]].R.F.Y.V.[dV].M.W.K.[dP].P}$PEPTIDE1,PEPTIDE1,1:R1-18:R2$$$V2.0) |  |  |  | dose-dependent viability decrease | efficient in inducing cell death |
| CCCC[C@@H]1NC(=O)[C@@H](C(C)C)NC(=O)[C@H](C(C)C)NC(=O)[C@H](Cc2ccc(O)cc2)NC(=O)[C@H](Cc2ccccc2)NC(=O)[C@H](CCCNC(=N)N)N(C)C(=O)[C@H](CO)NC(=O)[C@H](CO)NC(=O)[C@H](CC(N)=O)NC(=O)[C@H](C(C)C)NC(=O)[C@H](C(C)C)NC(=O)[C@H](CCCCN)NC(=O)[C@H](C(C)C)NC(=O)[C@H](CO)NC(=O)[C@H](CC(C)C)NC(=O)CNC(=O)[C@@H]2CCCN2C(=O)[C@H]2CCCN2C(=O)[C@H](CCCCN)NC(=O)[C@H](Cc2c[nH]c3ccccc23)NC1=O (relative stereo) [PKTD10-X-RNMe, —S—R*—F—Y—V—V—X—W—K—p—P—G—L—S—V—K—V—V—N—S— R* = RNMe and X = NLe] | 82.76 | 75.17 | 48.31 |  |  |
| CSCC[C@@H]1NC(=O)[C@@H](C(C)C)NC(=O)[C@H](C(C)C)NC(=O)[C@H](Cc2ccc(O)cc2)NC(=O)[C@H](Cc2ccccc2)NC(=O)[C@H](CCCNC(=N)N)NC(=O)[C@H](CO)NC(=O)CNC(=O)[C@H](CC(N)=O)NC(=O)[C@H](C(C)C)NC(=O)[C@H](C(C)C)NC(=O)[C@H](CCCCN)NC(=O)[C@H](C(C)C)NC(=O)[C@H](CO)NC(=O)[C@H](CC(C)C)NC(=O)CNC(=O)[C@@H]2CCCN2C(=O)[C@H]2CCCN2C(=O)[C@H](CCCCN)NC(=O)[C@H](Cc2c[nH]c3ccccc23)NC1=O [PKTD18, —S—R—F—Y—V—V—M—W—K—p—P—G—L—S—V—K—V—V—N—G—] (HELM PEPTIDE1{S.R.F.Y.V.[dV].M.W.K.[dP].P.G.L.S.V.K.V.V.N.G}$PEPTIDE1,PEPTIDE1,1:R1-20:R2$$$V2.0) | 82.45 | 75.12 | 67.48 |  |  |
| —S—R—F—Y—V—V—M—W—K—Q—p—P—S—G—L—S—V—K—V—V—N—S— [PKTD11] |  |  |  | dose-dependent viability decrease | efficient in inducing cell death |
| CC[C@H](C)[C@@H]1NC(=O)CNC(=O)[C@@H]2CCCN2C(=O)[C@H]2CCCN2C(=O)[C@H](CCCCN)NC(=O)[C@H](Cc2c[nH]c3ccccc23)NC(=O)[C@H](CCSC)NC(=O)[C@H](C(C)C)NC(=O)[C@H](C(C)C)NC(=O)[C@H](Cc2ccc(O)cc2)NC(=O)[C@H](Cc2ccccc2)NC(=O)[C@H](CCCNC(=N)N)NC(=O)[C@H](CO)NC(=O)[C@H](CO)NC(=O)[C@H](CCCCN)NC(=O)[C@H](C(C)C)NC(=O)[C@H](C(C)C)NC(=O)[C@H](CCCCN)NC(=O)[C@H](C(C)C)NC(=O)[C@H](CO)NC1=O [PKTD1, —S—R—F—Y—V—V—M—W—K—p—P—G—I—S—V—K—V—V—K—S—] (HELM PEPTIDE1{G.I.S.V.K.V.V.K.S.S.R.F.Y.V.V.M.W.K.[dP].P}$PEPTIDE1,PEPTIDE1,1:R1-20:R2$$$V2.0) | 76.44 | 63.51 | 37.56 |  |  |
| —S—R—F—Y—V—V—M—W—K—p—P—S—R—F—Y—V—V—M—W—K— (SRFYVVMWKPPSRFYVVMWK; HELM PEPTIDE1{S.R.F.Y.V.V.M.W.K.[dP].P.S.R.F.Y.V.V.M.W.K}$PEPTIDE1,PEPTIDE1,1:R1-20:R2$$$V2.0; SMILES CSCC[C@@H]1NC(=O)[C@H](C(C)C)NC(=O)[C@H](C(C)C)NC(=O)[C@H](Cc2ccc(O)cc2)NC(=O)[C@H](Cc2ccccc2)NC(=O)[C@H](CCCNC(=N)N)NC(=O)[C@H](CO)NC(=O)[C@@H]2CCCN2C(=O)[C@H]2CCCN2C(=O)[C@H](CCCCN)NC(=O)[C@H](Cc2c[nH]c3ccccc23)NC(=O)[C@H](CCSC)NC(=O)[C@H](C(C)C)NC(=O)[C@H](C(C)C)NC(=O)[C@H](Cc2ccc(O)cc2)NC(=O)[C@H](Cc2ccccc2)NC(=O)[C@H](CCCNC(=N)N)NC(=O)[C@H](CO)NC(=O)[C@H](CCCCN)NC(=O)[C@H](Cc2c[nH]c3ccccc23)NC1=O; listed as Homo sapiens) [PKTD16] |  |  |  | dose-dependent viability decrease |  |
| CC(C)C[C@@H]1NC(=O)[C@@H]2CCCN2C(=O)[C@H]2CCCN2C(=O)[C@H](Cc2c[nH]c3ccccc23)NC(=O)[C@H](CCCCN)NC(=O)[C@H](C(C)C)NC(=O)[C@H](C(C)C)NC(=O)[C@H](Cc2ccccc2)NC(=O)[C@H](Cc2ccccc2)NC(=O)[C@H](C(C)C)NC(=O)[C@H](C(C)C)NC(=O)[C@H](CCCCN)NC(=O)[C@H](C(C)C)NC(=O)[C@H](CO)NC1=O [PKD10-FF, —F—F—V—V—K—W—p—P—L—S—V—K—V—V—] (HELM PEPTIDE1{F.F.V.V.K.W.[dP].P.L.S.V.K.V.V}$PEPTIDE1,PEPTIDE1,1:R1-14:R2$$$V2.0) | 25.225 | 30.445 | 31.97 |  |  |
| CSCC[C@@H]1NC(=O)[C@H](C(C)C)NC(=O)[C@H](C(C)C)NC(=O)[C@H](Cc2ccc(O)cc2)NC(=O)[C@H](Cc2ccccc2)NC(=O)[C@H](CCCNC(=N)N)N(C)C(=O)[C@H](CO)NC(=O)[C@H](CO)NC(=O)[C@H](CC(N)=O)NC(=O)[C@H](C(C)C)NC(=O)[C@H](C(C)C)NC(=O)[C@H](CCCCN)NC(=O)[C@H](C(C)C)NC(=O)[C@H](CO)NC(=O)[C@H](CC(C)C)NC(=O)CNC(=O)[C@H](CO)NC(=O)[C@@H]2CCCN2C(=O)[C@H]2CCCN2C(=O)[C@H](CCC(N)=O)NC(=O)[C@H](CCCCN)NC(=O)[C@H](Cc2c[nH]c3ccccc23)NC1=O (relative stereo) [PKTD11RNMe, —S—R*—F—Y—V—V—M—W—K—Q—p—P—S—G—L—S—V—K—V—V—N—S— R* = RNMe] | 88.71 | 86.38 | 67.03 |  |  |
